The values that follow come from patent publication US11174245B2, “Benzimidazole compounds and derivatives as EGFR inhibitors” (Boehringer Ingelheim International GmbH, priority 2018, dated 2021).

pIC50: −log10 of the molar value.

Chain of EGFR (mutated) 695-1022, T790M, C797S, L858R (P00533 695-1022 T790M/C797S/L858R): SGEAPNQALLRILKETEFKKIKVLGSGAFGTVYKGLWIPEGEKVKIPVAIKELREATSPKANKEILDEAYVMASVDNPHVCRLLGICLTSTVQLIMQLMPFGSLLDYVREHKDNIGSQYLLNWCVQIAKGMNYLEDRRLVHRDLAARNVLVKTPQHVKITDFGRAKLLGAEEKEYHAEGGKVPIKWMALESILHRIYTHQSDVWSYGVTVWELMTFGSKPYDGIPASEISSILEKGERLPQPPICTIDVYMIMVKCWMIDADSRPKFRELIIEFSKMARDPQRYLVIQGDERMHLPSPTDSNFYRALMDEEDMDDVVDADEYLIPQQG
Chain of EGFR wt (P00533 25-1210): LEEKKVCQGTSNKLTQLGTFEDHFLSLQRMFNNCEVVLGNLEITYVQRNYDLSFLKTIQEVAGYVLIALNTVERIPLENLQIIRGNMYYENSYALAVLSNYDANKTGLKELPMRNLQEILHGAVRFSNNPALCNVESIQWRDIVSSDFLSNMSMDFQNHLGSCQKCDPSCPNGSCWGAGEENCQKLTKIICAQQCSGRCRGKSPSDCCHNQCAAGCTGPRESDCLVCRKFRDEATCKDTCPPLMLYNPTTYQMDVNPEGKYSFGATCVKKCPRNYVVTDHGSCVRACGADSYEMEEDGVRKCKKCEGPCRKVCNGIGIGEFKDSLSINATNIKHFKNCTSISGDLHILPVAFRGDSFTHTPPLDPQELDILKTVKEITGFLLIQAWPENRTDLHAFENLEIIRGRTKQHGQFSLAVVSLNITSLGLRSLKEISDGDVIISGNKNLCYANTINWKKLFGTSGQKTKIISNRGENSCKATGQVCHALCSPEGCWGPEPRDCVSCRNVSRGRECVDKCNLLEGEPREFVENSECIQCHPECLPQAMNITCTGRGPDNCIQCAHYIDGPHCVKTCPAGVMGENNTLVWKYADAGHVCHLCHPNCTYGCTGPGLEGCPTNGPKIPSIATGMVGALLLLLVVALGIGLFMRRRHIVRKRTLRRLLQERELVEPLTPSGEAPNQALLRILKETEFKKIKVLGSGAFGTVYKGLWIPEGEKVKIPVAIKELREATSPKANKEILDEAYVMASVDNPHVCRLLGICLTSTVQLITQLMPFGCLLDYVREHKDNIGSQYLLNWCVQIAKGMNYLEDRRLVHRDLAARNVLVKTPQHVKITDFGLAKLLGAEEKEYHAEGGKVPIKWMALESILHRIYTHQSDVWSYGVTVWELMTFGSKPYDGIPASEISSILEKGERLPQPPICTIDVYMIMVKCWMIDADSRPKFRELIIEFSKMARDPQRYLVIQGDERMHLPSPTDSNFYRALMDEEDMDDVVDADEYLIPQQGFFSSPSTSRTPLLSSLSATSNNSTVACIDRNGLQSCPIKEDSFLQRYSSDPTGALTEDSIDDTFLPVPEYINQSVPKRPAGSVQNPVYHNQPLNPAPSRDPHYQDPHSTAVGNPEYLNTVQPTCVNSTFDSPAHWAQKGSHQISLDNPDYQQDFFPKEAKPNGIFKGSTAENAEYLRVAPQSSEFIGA

The test system of one assay is Ba/F3 cells driven by EGFR mutants. As to the kind of experiment: Ba/F3 proliferation assay (CellTiter-Glo viability), EGFR mutant alleles. The format is cell-based, murine. To be noted: Mus musculus, BaF3, Ba/F3 EGFR L858R C797S, read-out: IC50 EGFR L858R C797S. As for the experimental part: (§1) Ba/F3 Cell Model Generation and Proliferation Assays
(§2) Plasmids containing EGFR mutants were obtained from GeneScript. To generate EGFR-dependent […] were transduced with retroviruses containing vectors that harbor EGFR isoforms. Platinum-E cells (Cell Biolabs) were used for retrovirus packaging. Retrovirus was added to Ba/F3 cells. To ensure infection, 4 μg/mL polybrene was added and cells were spinfected. Infection efficiency was confirmed by measuring GFP-positive cells using a cell analyzer. Cells with an infection efficiency of 10% to 20% were further cultivated and puromycin selection with 1 μg/mL was initiated. As a control, parental Ba/F3 cells were used to show selection status. Selection was considered successful when parental Ba/F3 cells cultures died. To evaluate the transforming potential of EGFR mutations, the growth medium was no longer supplemented with IL-3. Ba/F3 cells harboring the empty vector were used as a control. A switch from IL-3 to EGF was performed for Ba/F3 cells with the wildtype EGFR known for its dependency on EGF ligand. Approximately ten days before conducting the experiments, puromycin was left out. For proliferation assays (data in table 13), Ba/F3 cells were seeded into 96-well plates at 5×10^3 cells/100 μL in growth media. Compounds were added by using a HP D3000 Digital Dispenser. All treatments were performed in technical triplicates. Treated cells were incubated for 72 h at 37° C. with 5% CO2. CellTiter-Glo® Luminescent Cell Viability Assay (Promega) was performed and chemoluminescence was measured by using the multilabel Plate Reader VICTOR X4. The raw data were imported into and analyzed with the Boehringer Ingelheim proprietary software MegaLab (curve fitting based on the program PRISM, GraphPad Inc.).
Take `COc1ccccc1-c1cc(C(=O)/N=c2\[nH]c3cc(C)ccc3n2[C@H]2CC[C@@H](O)CC2)ccn1` [I-109]: the pIC50 was 7.29.

`Cn1cc(-c2cc(C(=O)/N=c3\[nH]c4ccccc4n3[C@H]3CCC[C@H](O)C3)ccn2)cn1` [I-137]: the negative-log IC50 (pIC50) is 7.00.

The assay is the same for the next values; noted with them: Mus musculus, BaF3, Ba/F3 EGFR L858R T790M C797S, read-out: IC50 EGFR L858R T790M C797S.
On to `COc1ccccc1-c1cc(C(=O)/N=c2\[nH]c3cc(C)ccc3n2[C@H]2CC[C@@H](O)CC2)ccn1` [I-109], for which the negative logarithm of the IC50 (pIC50) was 6.84.

Take `Cn1cc(-c2cc(C(=O)/N=c3\[nH]c4ccccc4n3[C@H]3CCC[C@H](O)C3)ccn2)cn1` [I-137]: the negative-log IC50 (pIC50) is 6.86.

Still in this assay, the particulars now being: Mus musculus, BaF3, Ba/F3 EGFR L858R T790M, read-out: IC50 EGFR L858R T790M.
For `COc1ccccc1-c1cc(C(=O)/N=c2\[nH]c3cc(C)ccc3n2[C@H]2CC[C@@H](O)CC2)ccn1` [I-109], the pIC50 is 6.75.

Take `Cn1cc(-c2cc(C(=O)/N=c3\[nH]c4ccccc4n3[C@H]3CCC[C@H](O)C3)ccn2)cn1` [I-137]: the negative-log IC50 (pIC50) is 6.75.

Staying with this assay, now noted: Mus musculus, BaF3, Ba/F3 EGFR L858R, read-out: IC50 EGFR L858R.
Turning to `COc1ccccc1-c1cc(C(=O)/N=c2\[nH]c3cc(C)ccc3n2[C@H]2CC[C@@H](O)CC2)ccn1` [I-109], the pIC50 is 7.42.

For `Cn1cc(-c2cc(C(=O)/N=c3\[nH]c4ccccc4n3[C@H]3CCC[C@H](O)C3)ccn2)cn1` [I-137], the pIC50 was 7.04.

Still in this assay, the particulars now being: Mus musculus, BaF3, Ba/F3 EGFR del19, read-out: IC50 EGFR del19.
Take `COc1ccccc1-c1cc(C(=O)/N=c2\[nH]c3cc(C)ccc3n2[C@H]2CC[C@@H](O)CC2)ccn1` [I-109]: the pIC50 was 8.04.

As to `Cn1cc(-c2cc(C(=O)/N=c3\[nH]c4ccccc4n3[C@H]3CCC[C@H](O)C3)ccn2)cn1` [I-137], the pIC50 is 7.78.

Staying with this assay, now noted: Mus musculus, BaF3, Ba/F3 EGFR del19 C797S, read-out: IC50 EGFR del19 C797S.
For `COc1ccccc1-c1cc(C(=O)/N=c2\[nH]c3cc(C)ccc3n2[C@H]2CC[C@@H](O)CC2)ccn1` [I-109], the pIC50 is 8.15.

For the molecule `Cn1cc(-c2cc(C(=O)/N=c3\[nH]c4ccccc4n3[C@H]3CCC[C@H](O)C3)ccn2)cn1` [I-137], the negative-log IC50 (pIC50) is 8.06.

Staying with this assay, now noted: Mus musculus, BaF3, Ba/F3 EGFR del19 T790M C797S, read-out: IC50 EGFR del19 T790M C797S.
On to `COc1ccccc1-c1cc(C(=O)/N=c2\[nH]c3cc(C)ccc3n2[C@H]2CC[C@@H](O)CC2)ccn1` [I-109], for which the pIC50 is 7.63.

For the molecule `Cn1cc(-c2cc(C(=O)/N=c3\[nH]c4ccccc4n3[C@H]3CCC[C@H](O)C3)ccn2)cn1` [I-137], the pIC50 was 7.68.

The assay is the same for the next values; noted with them: Mus musculus, BaF3, Ba/F3 EGFR del19 T790M, read-out: IC50 EGFR del19 T790M.
For `COc1ccccc1-c1cc(C(=O)/N=c2\[nH]c3cc(C)ccc3n2[C@H]2CC[C@@H](O)CC2)ccn1` [I-109], the negative logarithm of the IC50 (pIC50) was 7.28.

Regarding `Cn1cc(-c2cc(C(=O)/N=c3\[nH]c4ccccc4n3[C@H]3CCC[C@H](O)C3)ccn2)cn1` [I-137], the negative-log IC50 (pIC50) is 7.14.

For another assay, the system named is Ba/F3 cells with the wildtype EGFR. The experiment in a line: Ba/F3 proliferation assay (CellTiter-Glo viability), wildtype EGFR with EGF. The format is cell-based, murine. Particulars: Mus musculus, BaF3, Ba/F3 EGFR wt. How it is done:
as §1, §2
On the technique in general: In ATP-based viability assays light output follows the ATP content of the culture.
`COc1ccccc1-c1cc(C(=O)/N=c2\[nH]c3cc(C)ccc3n2[C@H]2CC[C@@H](O)CC2)ccn1` [I-109]: the negative logarithm of the IC50 (pIC50) was 6.14.

For the molecule `Cn1cc(-c2cc(C(=O)/N=c3\[nH]c4ccccc4n3[C@H]3CCC[C@H](O)C3)ccn2)cn1` [I-137], the negative logarithm of the IC50 (pIC50) was 5.69.

The subject of the next assay is Ba/F3 cells EGFR-indep. + IL-3. As to the kind of experiment: Ba/F3 proliferation assay (CellTiter-Glo viability), EGFR-independent cells with IL-3. The assay is classed as cell-based, murine. To be noted: Mus musculus, BaF3, Ba/F3 EGFR-independent + IL-3. How it is done:
as §2
`COc1ccccc1-c1cc(C(=O)/N=c2\[nH]c3cc(C)ccc3n2[C@H]2CC[C@@H](O)CC2)ccn1` [I-109]: the negative logarithm of the IC50 (pIC50) was 5.06.

In the case of `Cn1cc(-c2cc(C(=O)/N=c3\[nH]c4ccccc4n3[C@H]3CCC[C@H](O)C3)ccn2)cn1` [I-137], the negative-log IC50 (pIC50) is 5.04.

A further assay deals with EGFR del19 T790M C797S protein in Ba/F3 cells (Homo sapiens, UniProt P00533, C797S/DEL746-750/T790M). The experiment in a line: pEGFR assay (AlphaScreen Surefire, EGFR Tyr1068 phosphorylation). The assay is classed as cell-based.
Chain of EGFR del19 T790M C797S protein in Ba/F3 cells (P00533 with tags, fused parts or gaps C797S/DEL746-750/T790M limits assumed): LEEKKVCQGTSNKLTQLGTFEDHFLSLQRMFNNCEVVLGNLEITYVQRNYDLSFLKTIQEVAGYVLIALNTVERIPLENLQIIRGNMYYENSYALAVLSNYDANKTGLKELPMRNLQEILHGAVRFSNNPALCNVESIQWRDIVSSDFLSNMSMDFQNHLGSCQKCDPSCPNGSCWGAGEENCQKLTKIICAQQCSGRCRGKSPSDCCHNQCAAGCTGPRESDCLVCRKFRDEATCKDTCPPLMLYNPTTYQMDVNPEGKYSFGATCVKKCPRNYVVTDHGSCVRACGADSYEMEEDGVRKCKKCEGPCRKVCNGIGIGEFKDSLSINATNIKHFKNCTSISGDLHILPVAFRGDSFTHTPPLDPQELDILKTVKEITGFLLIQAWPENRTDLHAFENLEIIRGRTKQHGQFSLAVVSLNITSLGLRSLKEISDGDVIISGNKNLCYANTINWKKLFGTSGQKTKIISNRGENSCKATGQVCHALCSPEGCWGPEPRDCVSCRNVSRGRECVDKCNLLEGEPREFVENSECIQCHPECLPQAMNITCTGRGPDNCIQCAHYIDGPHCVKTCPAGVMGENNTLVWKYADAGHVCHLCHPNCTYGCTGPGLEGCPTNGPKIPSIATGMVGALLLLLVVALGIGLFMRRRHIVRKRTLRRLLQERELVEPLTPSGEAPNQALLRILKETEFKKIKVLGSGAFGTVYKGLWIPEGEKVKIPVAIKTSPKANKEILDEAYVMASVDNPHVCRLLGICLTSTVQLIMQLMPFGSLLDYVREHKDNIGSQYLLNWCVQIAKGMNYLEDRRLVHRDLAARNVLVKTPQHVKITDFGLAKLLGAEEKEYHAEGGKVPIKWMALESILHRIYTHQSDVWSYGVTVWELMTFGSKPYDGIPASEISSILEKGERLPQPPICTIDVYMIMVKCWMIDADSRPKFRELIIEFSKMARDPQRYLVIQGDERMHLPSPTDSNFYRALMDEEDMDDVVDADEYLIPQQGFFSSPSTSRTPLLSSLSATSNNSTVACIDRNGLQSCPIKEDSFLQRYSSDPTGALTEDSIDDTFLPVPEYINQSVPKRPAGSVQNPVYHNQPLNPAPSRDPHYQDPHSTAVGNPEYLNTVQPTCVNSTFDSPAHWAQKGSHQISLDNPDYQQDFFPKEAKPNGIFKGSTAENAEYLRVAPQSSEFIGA
Settings: not given
The procedure, abridged:
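Transduced Ba/F3 cells, puromycin-selected and grown IL-3 independent, were treated with compound at 60.000 cells/well for 4 h at 37° C. Lysis followed for 20 min at room temperature, and Tyr1068 phospho-EGFR in lysate was detected after 2 h dark incubation. Results are IC50 values.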
The molecule `COc1ccccc1-c1cc(C(=O)/N=c2\[nH]c3cc(C)ccc3n2[C@H]2CC[C@@H](O)CC2)ccn1` [I-109] showed a pIC50 of 8.40.

Take `Cn1cc(-c2cc(C(=O)/N=c3\[nH]c4ccccc4n3[C@H]3CCC[C@H](O)C3)ccn2)cn1` [I-137]: the pIC50 is 8.70.

Another assay concerns the target EGFR (mutated) 695-1022, T790M, C797S, L858R (Homo sapiens (Human), UniProt P00533, C797S/L858R/T790M). The experiment in a line: Biochemical EGFR inhibition assay (TR-FRET, poly-GT substrate), EGFR T790M C797S L858R. To be noted: read-out: LR_TM_CS (5 μM ATP) IC50; 5 μM ATP. The procedure, abridged: (§3)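 Phosphorylation of tagged poly-GT substrate by EGFR forms measured at 5 μM and 100 μM ATP (final). Top compound concentration 100 μM, eleven fivefold dilutions, in duplicate. Results given as IC50.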
On to `COc1ccccc1-c1cc(C(=O)/N=c2\[nH]c3cc(C)ccc3n2[C@H]2CC[C@@H](O)CC2)ccn1` [I-109], for which the pIC50 is 9.30.

On to `Cn1cc(-c2cc(C(=O)/N=c3\[nH]c4ccccc4n3[C@H]3CCC[C@H](O)C3)ccn2)cn1` [I-137], for which the negative logarithm of the IC50 (pIC50) is 9.10.

Still in this assay, the particulars now being: read-out: LR_TM_CS (100 μM ATP) IC50; 100 μM ATP.
As for `COc1ccccc1-c1cc(C(=O)/N=c2\[nH]c3cc(C)ccc3n2[C@H]2CC[C@@H](O)CC2)ccn1` [I-109], the pIC50 is 8.06.

The next assay addresses EGFR wt (Homo sapiens (Human), UniProt P00533). As to the kind of experiment: Biochemical EGFR inhibition assay (TR-FRET, poly-GT substrate), EGFR wt. Particulars: read-out: wt (5 μM ATP) IC50; 5 μM ATP. The procedure, abridged: as §3
(In general: In TR-FRET formats the signal depends on donor and acceptor labels being close together.)
Regarding `COc1ccccc1-c1cc(C(=O)/N=c2\[nH]c3cc(C)ccc3n2[C@H]2CC[C@@H](O)CC2)ccn1` [I-109], the negative logarithm of the IC50 (pIC50) is 7.90.

In the case of `Cn1cc(-c2cc(C(=O)/N=c3\[nH]c4ccccc4n3[C@H]3CCC[C@H](O)C3)ccn2)cn1` [I-137], the pIC50 was 6.97.

Staying with this assay, now noted: read-out: wt (100 μM ATP) IC50; 100 μM ATP.
On to `COc1ccccc1-c1cc(C(=O)/N=c2\[nH]c3cc(C)ccc3n2[C@H]2CC[C@@H](O)CC2)ccn1` [I-109], for which the pIC50 was 6.26.

In general, pIC50 refers to the negative decadic logarithm of the IC50, by convention in mol/L.
